Experimental data as given in US6706740B2, “Fungicidal heterocyclic aromatic amides and their compositions, methods of use and preparation” (Dow AgroSciences LLC, priority 1999, dated 2004).
Like-named read-outs stand apart in the source and are kept apart here.

Tests used:
Erysiphe graminis—ERYSGT = test: Powdery Mildew of Wheat, in vivo whole plant, 24 Hour Protectant
Ustilago maydis (USTIMA) = test: microbe, parasite or virus in culture; assay type: cell-based; settings: Mycosarcoma maydis, read-out: USTIMA in vitro Growth Inhibition
[1] = test system: Magnaporthe grisea (Pyricularia oryzae—PYRIOR); test: microbe, parasite or virus in culture; assay type: cell-based; settings: Pyricularia oryzae, read-out: PYRIOR in vitro Growth Inhibition
[2] = test system: Stagonospora nodorum (Leptosphaeria nodorum—LEPTNO); test: In vitro fungal growth inhibition, Stagonospora nodorum (LEPTNO); assay type: cell-based; settings: Leptosphaeria; 25 ppm in growth medium; read-out: LEPTNO in vitro Growth Inhibition
[3] = test system: Phytophthora infestans (PHYTIN); test: microbe, parasite or virus in culture; assay type: cell-based; settings: Phytophthora infestans, read-out: PHYTIN in vitro Growth Inhibition
[4] = test system: Leptosphaeria nodorum—LEPTNO; test: Glume Blotch of Wheat, in vivo whole plant, 24 Hour Protectant
[5] = test system: Puccinia recondita—PUCCRT; test: Brown Rust of Wheat, in vivo whole plant, 24 Hour Protectant
[6] = test system: Mycosphaerella graminicola (Septoria tritici—SEPTTR); test: In vitro fungal growth inhibition, Mycosphaerella graminicola (SEPTTR); assay type: cell-based; settings: Zymoseptoria tritici; 25 ppm in growth medium; read-out: SEPTTR in vitro Growth Inhibition
[7] = test system: Rhizoctonia solani (RHIZSO); test: microbe, parasite or virus in culture; assay type: cell-based; settings: Rhizoctonia solani, read-out: RHIZSO in vitro Growth Inhibition
[8] = test system: Phytophthora infestans—PHYTIN; test: whole plant or invertebrate; assay type: in vivo; settings: Phytophthora, in Solanum lycopersicum, 24 h, read-out: PHYTIN in vivo 1 Day Protectant
Septoria tritici—SEPTTR = test: Leaf Blotch of Wheat, in vivo whole plant, 24 Hour Protectant
[9] = 100 ppm spray, wheat, 24 hour protectant, % control of fungal infection vs untreated plants
[10] = Erysiphe; 100 ppm spray, wheat, 24 hour protectant; control of fungal infection vs untreated plants; read-out: ERYSGT in vivo 1 Day Protectant
[11] = Leptosphaeria; 100 ppm spray, wheat, 24 hour protectant; control of fungal infection vs untreated plants; read-out: LEPTNO in vivo 1 Day Protectant
[12] = Puccinia; 100 ppm spray, wheat, 24 hour protectant; control of fungal infection vs untreated plants; read-out: PUCCRT in vivo 1 Day Protectant
[13] = Zymoseptoria tritici, 24 h, 100 ppm spray, wheat, 24 hour protectant; control of fungal infection vs untreated plants; read-out: SEPTTR in vivo 1 Day Protectant
[14] = Erysiphe; 100 ppm spray, 24 hour protectant, wheat; control of fungal infection vs untreated plants; read-out: ERYSGT in vivo 1 Day Protectant
[15] = Leptosphaeria; 100 ppm spray, 24 hour protectant, wheat; control of fungal infection vs untreated plants; read-out: LEPTNO in vivo 1 Day Protectant
[16] = Puccinia; 100 ppm spray, 24 hour protectant, wheat; control of fungal infection vs untreated plants; read-out: PUCCRT in vivo 1 Day Protectant
[17] = Zymoseptoria tritici, 24 h, 100 ppm spray, 24 hour protectant, wheat; control of fungal infection vs untreated plants; read-out: SEPTTR in vivo 1 Day Protectant
[18] = 100 ppm spray, wheat, 24 hour protectant; control of fungal infection vs untreated plants

Structure (SMILES)	inhibition at 25 ppm (Ustilago maydis (USTIMA)) [%]	inhibition at 25 ppm [1] [%]	inhibition at 25 ppm [2] [%]	inhibition at 25 ppm [3] [%]	inhibition at 25 ppm [6] [%]	inhibition at 25 ppm [7] [%]	pest or weed control at 100 ppm [8] [%]	pest or weed control at 100 ppm (Erysiphe graminis—ERYSGT; [10]) [%]	pest or weed control at 100 ppm [4, 11] [%]	pest or weed control at 100 ppm [5, 12] [%]	pest or weed control at 100 ppm (Septoria tritici—SEPTTR; [13]) [%]	pest or weed control at 100 ppm (Erysiphe graminis—ERYSGT; [14]) [%]	pest or weed control at 100 ppm [4, 15] [%]	pest or weed control at 100 ppm [5, 16] [%]	also measured
COc1ccnc(C(=O)N[C@H]2COC(=O)[C@H](Cc3ccccc3)[C@@H](OC(=O)C(C)C)[C@H](C)OC2=O)c1OC(=O)C1CCCC1 [Compound 611]	< 80	< 80	< 80	< 80	< 80	< 80	< 25								pest or weed control at 100 ppm (Erysiphe graminis—ERYSGT; Erysiphe; 100 ppm spray, wheat, 24 hour protectant, % control of fungal infection vs untreated plants; read-out: ERYSGT in vivo 1 Day Protectant): < 25%; LEPTNO in vivo 1 Day Protectant [4, 9]: + +; PUCCRT in vivo 1 Day Protectant [5, 9]: + +; SEPTTR in vivo 1 Day Protectant (Septoria tritici—SEPTTR; [9]): + +
COc1ccnc(C(=O)N[C@@H](CO)C(=O)O[C@@H](C)[C@H](OC(=O)C(C)C)[C@@H](Cc2ccccc2)C(=O)O)c1O [Compound 341]	< 80	< 80	< 80	< 80	< 80	< 80	< 25	< 25	< 25	< 25	25 to 74				
COc1ccnc(C(=O)NCC2COCCOCCOCCOCCO2)c1O (stereo not drawn) [Compound 245]	< 80	< 80	< 80	< 80	< 80	< 80	< 25					< 25	25 to 74	< 25	pest or weed control at 100 ppm (Septoria tritici—SEPTTR; [17]): 25 to 74%
COc1ccnc(C(=O)N[C@H]2CC3OC2[C@H](C)[C@@H](OCc2ccccc2)[C@H]3C)c1O (stereo partly drawn) [Compound 321]	< 80	< 80	< 80	< 80	< 80	< 80	< 25					< 25	< 25	25 to 74	pest or weed control at 100 ppm (Septoria tritici—SEPTTR; [17]): < 25%
CCOC(=O)Oc1c(OC)ccnc1C(=O)N[C@H]1COC(=O)[C@H](Cc2ccccc2)[C@@H](OC(=O)C(C)C)[C@H](C)OC1=O [Compound 679]	< 80	> 80	< 80	< 80	< 80	> 80	< 25								ERYSGT in vivo 1 Day Protectant (Erysiphe graminis—ERYSGT; [9]): + +; LEPTNO in vivo 1 Day Protectant [4, 9]: + +; PUCCRT in vivo 1 Day Protectant [5, 9]: + +; SEPTTR in vivo 1 Day Protectant (Septoria tritici—SEPTTR; [9]): + +
COc1ccnc(C(=O)Nc2cccc(Oc3ccc(C(F)(F)F)cc3)c2)c1O [Compound 423]	< 80	> 80	< 80	< 80	< 80	< 80	< 25	< 25	25 to 74	25 to 74	25 to 74				
COc1ccnc(C(=O)Nc2ccc(Oc3cccc(C)c3)cc2)c1O [Compound 416]	< 80	> 80	< 80	< 80	> 80	< 80	< 25	< 25	< 25	25 to 74	< 25				
COc1ccnc(C(=O)NC(COC(=O)C(C)Cc2ccccc2)C(=O)OC(C)C)c1O (stereo not drawn) [Compound 351]	> 80	< 80	< 80	< 80	< 80	< 80	< 25	< 25	25 to 74		< 25				PUCCRT in vivo 1 Day Protectant [5, 18]: + +
COc1ccc(Oc2ccc(NC(=O)c3nccc(OC)c3O)cc2)cc1 [Compound 435]	< 80	< 80	< 80	< 80	> 80	< 80	< 25	< 25	25 to 74	< 25	< 25				
COc1ccnc(C(=O)NC2CCCC2O)c1O (stereo not drawn) [Compound 248]	< 80	< 80	< 80	< 80	< 80	< 80	< 25					< 25	25 to 74	< 25	pest or weed control at 100 ppm (Septoria tritici—SEPTTR; [17]): < 25%
O=C(N[C@H]1CC2CC1[C@@H]1CCC[C@H]21)c1ncccc1O (stereo partly drawn) [Compound 206]	< 80	> 80	> 80	< 80	> 80	> 80	< 25					< 25	< 25	< 25	pest or weed control at 100 ppm (Septoria tritici—SEPTTR; [17]): < 25%
COc1ccnc(C(=O)N[C@H]2COC(=O)[C@H](Cc3ccccc3)[C@@H](OC(=O)OC(C)C)[C@H](C)OC2=O)c1O [Compound 401]	> 80	> 80	> 80	< 80	> 80	< 80	< 25	< 25		25 to 74	25 to 74				LEPTNO in vivo 1 Day Protectant [4, 18]: + +
COc1ccnc(C(=O)Nc2ccccc2Oc2ccccc2C#N)c1O [Compound 418]	< 80	< 80	< 80	< 80	< 80	< 80	< 25	< 25	< 25	25 to 74	< 25				
COc1ccnc(C(=O)N[C@@H]2OC[C@@H](OCc3ccccc3)[C@H](OCc3ccccc3)[C@H]2OCc2ccccc2)c1O [Compound 332]	< 80	< 80	< 80	< 80	< 80	< 80	< 25	< 25	25 to 74	< 25	25 to 74				
COc1ccnc(C(=O)NC2C3CC4C(C3Cl)C42)c1O (stereo not drawn) [Compound 304]	< 80	< 80	< 80	< 80	< 80	> 80	< 25					< 25	25 to 74	< 25	SEPTTR in vivo 1 Day Protectant (Septoria tritici—SEPTTR; 100 ppm spray, 24 hour protectant, wheat; control of fungal infection vs untreated plants): + +
